Experimental data from article PMC7878868, “Mechanisms of feedback inhibition and sequential firing of active sites in plant aspartate transcarbamoylase” (Nature Communications, 2021).
Substitutions are numbered along the chain they refer to. Several values for one entry are separate records, joined by “and”; a condition that tells them apart may be missing. Equal values may be shown once. Read-outs that look alike come from different tables or passages of the source.

Columns and labels:
atATC WT = molecular target: T1, atATC WT (Arabidopsis thaliana, UniProt P49077); assay: Colorimetric ATC activity assay, atATC WT; assay type: biochemical; settings: for Activity WT: 10 mM Asp
T1 construct: 2.6 kDa fusion tag (modified pET28a); made in house; host or cells: E. coli BLR(DE3)-pLysS
T1 sequence (P49077 82-390): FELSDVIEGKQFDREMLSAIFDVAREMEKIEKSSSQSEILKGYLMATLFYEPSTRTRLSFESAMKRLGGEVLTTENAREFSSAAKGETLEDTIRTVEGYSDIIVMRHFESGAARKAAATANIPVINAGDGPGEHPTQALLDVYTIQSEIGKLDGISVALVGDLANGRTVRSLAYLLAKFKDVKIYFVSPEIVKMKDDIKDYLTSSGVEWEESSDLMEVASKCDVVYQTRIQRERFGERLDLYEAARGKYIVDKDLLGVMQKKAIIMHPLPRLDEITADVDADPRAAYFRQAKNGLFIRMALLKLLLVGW
Experimental: (§1) Activity was assayed by a colorimetric method[64] adapted to a 96-well plate format. […] Reagent B is light sensitive and was stored at 4 °C in the dark. The color reagents were gently mixed and stored at 4 °C in the dark until added to the sample. Reaction tubes were closed, boiled at 95 °C for 15 min, and kept in the dark for 30 min before measuring the absorbance at 450 nm in a Tecan infinite m200 microplate reader (Tecan). […] Data analysis was done with GraphPad. […] Protein concentration in the assay was 0.3 µM (0.01 mg ml^−1) both for WT and F161A.

atATC-F161A [1] = molecular target: T2, atATC-F161A (Arabidopsis thaliana, UniProt P49077, F161A); assay: Colorimetric ATC activity assay, atATC F161A; assay type: biochemical; settings: for Activity F161A: 10 mM Asp
T2 construct: 2.6 kDa fusion tag (modified pET28a); made in house; host or cells: E. coli BLR(DE3)-pLysS
T2 sequence (P49077 82-390 F161A): T1 sequence (P49077 82-390) with F80A
Experimental: as §1

[2] = molecular target: T3, atATC (Arabidopsis ATC aa 82–390) WT (Arabidopsis thaliana, UniProt P49077); assay: Isothermal titration calorimetry (ITC), atATC WT; assay type: binding; settings: ITC; for Kd: 25 °C
T3 construct: 2.6 kDa fusion tag (modified pET28a); made in house; host or cells: E. coli BLR(DE3)-pLysS
T3 sequence (P49077 82-390): T1 sequence (P49077 82-390)
Experimental: (§2) Experiments were performed in an Auto-iTC200 calorimeter (MicroCal, Malvern-Panalytical) at 25 °C with a 0.2 ml reaction cell and 30–40 µM protein solution (in protomer units) in the cell. […] All solutions were in GF buffer and degassed and mixed in the cell by stirring at 750 rpm. Data analysis was performed with Origin 7 (OriginLab) using a general three-site cooperative and a non-cooperative binding model, restricted to one or two ligand binding sites when convenient[24],[62],[63]. Non-linear least-squares regression analysis was employed to estimate dissociation constants for the interaction of the different ligands with ATC.

atATC WT:PALA = molecular target: T4, atATC WT:PALA (Arabidopsis thaliana, UniProt P49077); assay: ITC, atATC WT prebound to PALA (WT:PALA); assay type: binding; settings: for N, number of binding sites per protein trimer according to the ligand binding model / -TΔS Site 2 / ΔG Site 2 / ΔH Site 2 / -TΔS Site 3 / ΔG Site 3 / ΔH Site 3: ITC, protein prebound to PALA; for Kd: read-out: KD Site 2
T4 construct: 2.6 kDa fusion tag (modified pET28a); made in house; host or cells: E. coli BLR(DE3)-pLysS
T4 sequence (P49077 82-390): T1 sequence (P49077 82-390)
Experimental: as §2

atATC-F161A [3] = molecular target: T2, atATC-F161A; assay: biochemical; assay type: binding
Experimental: as §2

## N[C@@H](CC(=O)O)C(=O)O [Asp, aspartate]
atATC WT; WT, Asp variable, 5 mM CP
  K0.5 Asp: 0.94 mM and 0.94 ± 0.10 mM
atATC-F161A [1]; F161A, Asp variable, 5 mM CP
  K0.5 Asp: 3.20 ± 1.03 mM

## NC(=O)OP(=O)(O)O [CP, carbamoyl phosphate]
[2]
  N, number of binding sites per protein trimer according to the ligand binding model: 3
  -TΔS Site 1: -2.6 kcal/mol
  ΔG Site 1: -5.6 kcal/mol
  ΔH Site 1: -3.0 kcal/mol
  -TΔS Site 2: -2.6 kcal/mol
  ΔG Site 2: -5.6 kcal/mol
  ΔH Site 2: -3.0 kcal/mol
[2]; site 1, read-out: KD Site 1
  Kd: 80000 nM
[2]; site 2, read-out: KD Site 2
  Kd: 80000 nM
[2]; site 3, read-out: KD Site 3
  Kd: 80000 nM
[2]; site 3
  -TΔS Site 3: -2.6 kcal/mol
  ΔG Site 3: -5.6 kcal/mol
atATC WT:PALA
  N, number of binding sites per protein trimer according to the ligand binding model: 2
  -TΔS Site 2: 0.4 kcal/mol
  ΔG Site 2: -5.3 kcal/mol
  ΔH Site 2: -5.7 kcal/mol
  -TΔS Site 3: 0.4 kcal/mol
  ΔG Site 3: -5.3 kcal/mol
  ΔH Site 3: -5.7 kcal/mol
  Kd: 140000 nM
atATC-F161A [3]; ITC, F161A
  N, number of binding sites per protein trimer according to the ligand binding model: 3
atATC-F161A [3]; ITC, F161A versus WT
  fold higher affinity of F161A than WT: ~ 100 fold
atATC-F161A [3]; ITC, F161A, site 1
  -TΔS Site 1: -2.4 kcal/mol
  ΔG Site 1: -8.4 kcal/mol
  ΔH Site 1: -6.0 kcal/mol
atATC-F161A [3]; ITC, F161A, site 2
  -TΔS Site 2: -2.4 kcal/mol
  ΔG Site 2: -8.4 kcal/mol
  ΔH Site 2: -6.0 kcal/mol
atATC-F161A [3]; ITC, F161A, site 3
  -TΔS Site 3: -2.4 kcal/mol
  ΔG Site 3: -8.4 kcal/mol
  ΔH Site 3: -6.0 kcal/mol
atATC-F161A [3]; KD Site 1, ITC, F161A, site 1
  Kd: 730 nM
atATC-F161A [3]; KD Site 2, ITC, F161A, site 2
  Kd: 730 nM
atATC-F161A [3]; KD Site 3, ITC, F161A, site 3
  Kd: 730 nM
atATC-F161A [3]; KD, ITC, F161A
  Kd: 700 nM
atATC WT; WT, CP as variable ligand, in the presence of UMP
  Hill-coefficient h of CP initial-rate plot: 2.2

## O=c1ccn([C@@H]2O[C@H](COP(=O)(O)O)[C@@H](O)[C@H]2O)c(=O)[nH]1 [UMP, uridine 5-monophosphate]
[2]
  N, number of binding sites per protein trimer according to the ligand binding model: 3
  fold higher affinity for UMP than for CP: ~400 fold
  fold higher affinity for UMP than for the transition-state analog (PALA): 3 fold
  -TΔS Site 1: -6.3 kcal/mol
  ΔG Site 1: -9.1 kcal/mol
  ΔH Site 1: -2.8 kcal/mol
  -TΔS Site 2: -8.9 kcal/mol
  ΔG Site 2: -7.7 kcal/mol
  ΔH Site 2: 1.2 kcal/mol
[2]; site 1, read-out: KD Site 1
  Kd: 210 nM and 200 nM
[2]; site 2, read-out: KD Site 2
  Kd: 2300 nM
[2]; site 3, read-out: KD Site 3
  Kd: 1600 nM
[2]; negative cooperativity
  fold reduction of the affinity of the other subunits after binding to the first site: 10 fold
[2]; site 3
  -TΔS Site 3: -7.4 kcal/mol
  ΔG Site 3: -7.9 kcal/mol
  ΔH Site 3: -0.5 kcal/mol
atATC WT:PALA
  N, number of binding sites per protein trimer according to the ligand binding model: 2
  -TΔS Site 2: -8.5 kcal/mol
  ΔG Site 2: -8.1 kcal/mol
  ΔH Site 2: 0.4 kcal/mol
  -TΔS Site 3: -8.5 kcal/mol
  ΔG Site 3: -8.1 kcal/mol
  ΔH Site 3: 0.4 kcal/mol
  Kd: 1200 nM
atATC-F161A [3]; F161A, 70 µM UMP at most, 30-40 µM protein
  binding detected by ITC: failed to detect the binding
atATC WT; 0.1 mM UMP, [CP] 0.31 mM
  Activity WT: 4.11 nmol / min μg and 7.63 nmol / min μg and 5.39 nmol / min μg
atATC WT; 0.1 mM UMP, [CP] 1.25 mM
  Activity WT: 41.20 nmol / min μg and 48.03 nmol / min μg and 40.64 nmol / min μg
atATC WT; 0.1 mM UMP, [CP] 2.50 mM
  Activity WT: 66.92 nmol / min μg and 70.05 nmol / min μg and 71.44 nmol / min μg
atATC WT; 0.1 mM UMP, [CP] 3.00 mM
  Activity WT: 72.17 nmol / min μg and 74.13 nmol / min μg and 71.50 nmol / min μg
atATC WT; 0.1 mM UMP, [CP] 4.00 mM
  Activity WT: 77.07 nmol / min μg and 76.02 nmol / min μg and 75.78 nmol / min μg
atATC WT; 0.1 mM UMP, [CP] 5.00 mM
  Activity WT: 76.47 nmol / min μg and 78.06 nmol / min μg and 76.19 nmol / min μg
atATC WT; 0.4 mM UMP, [CP] 1.25 mM
  Activity WT: 9.87 nmol / min μg and 11.15 nmol / min μg and 12.99 nmol / min μg
atATC WT; 0.4 mM UMP, [CP] 2.50 mM
  Activity WT: 28.61 nmol / min μg and 31.67 nmol / min μg and 35.52 nmol / min μg
atATC WT; 0.4 mM UMP, [CP] 3.00 mM
  Activity WT: 41.63 nmol / min μg and 37.33 nmol / min μg and 40.36 nmol / min μg
atATC WT; 0.4 mM UMP, [CP] 4.00 mM
  Activity WT: 48.76 nmol / min μg and 50.91 nmol / min μg and 53.68 nmol / min μg
atATC WT; 0.4 mM UMP, [CP] 5.00 mM
  Activity WT: 58.15 nmol / min μg and 59.40 nmol / min μg and 57.60 nmol / min μg
atATC-F161A [1]; 0.2 mM UMP, [CP] 0.31 mM
  Activity F161A: 31.06 nmol / min μg and 26.77 nmol / min μg and 21.39 nmol / min μg
atATC-F161A [1]; 0.2 mM UMP, [CP] 0.63 mM
  Activity F161A: 62.38 nmol / min μg and 46.00 nmol / min μg and 48.44 nmol / min μg
atATC-F161A [1]; 0.2 mM UMP, [CP] 1.25 mM
  Activity F161A: 61.36 nmol / min μg and 58.95 nmol / min μg and 63.80 nmol / min μg
atATC-F161A [1]; 0.2 mM UMP, [CP] 2.50 mM
  Activity F161A: 64.72 nmol / min μg and 56.89 nmol / min μg and 56.14 nmol / min μg
atATC-F161A [1]; 0.4 mM UMP, [CP] 0.31 mM
  Activity F161A: 27.07 nmol / min μg and 21.22 nmol / min μg and 30.75 nmol / min μg
atATC-F161A [1]; 0.4 mM UMP, [CP] 0.63 mM
  Activity F161A: 50.59 nmol / min μg and 53.67 nmol / min μg and 49.88 nmol / min μg
atATC-F161A [1]; 0.4 mM UMP, [CP] 1.25 mM
  Activity F161A: 68.18 nmol / min μg and 58.61 nmol / min μg and 62.41 nmol / min μg
atATC-F161A [1]; 0.4 mM UMP, [CP] 2.50 mM
  Activity F161A: 55.88 nmol / min μg and 59.00 nmol / min μg and 63.38 nmol / min μg
atATC-F161A [1]; F161A
  inhibition of enzyme activity by UMP: not inhibited
